Measurements published in the kinase profiling compilation of Christmann-Franck et al. (2016).

Tests used:
Assay in all cases: radiometric filter-binding kinase assay, Kinase HotSpot
Settings in all cases: compound 0.5 µM; ATP 10 µM
NUAK1 (human) = NUAK1 (human) (UniProt O60285)
GRK7 (human) = GRK7 (human) (UniProt Q8WTQ7)
EPHA2 (human) = EPHA2 (human) (UniProt P29317)
STK4 (human) = STK4 (human) (UniProt Q13043)
MAPKAPK5 (human) = MAPKAPK5 (human) (UniProt Q8IW41)
NEK2 (human) = NEK2 (human) (UniProt P51955)
ABL2 (human) = ABL2 (human) (UniProt P42684)
Chain of ABL2 (human) (P42684 whole entry, looked up): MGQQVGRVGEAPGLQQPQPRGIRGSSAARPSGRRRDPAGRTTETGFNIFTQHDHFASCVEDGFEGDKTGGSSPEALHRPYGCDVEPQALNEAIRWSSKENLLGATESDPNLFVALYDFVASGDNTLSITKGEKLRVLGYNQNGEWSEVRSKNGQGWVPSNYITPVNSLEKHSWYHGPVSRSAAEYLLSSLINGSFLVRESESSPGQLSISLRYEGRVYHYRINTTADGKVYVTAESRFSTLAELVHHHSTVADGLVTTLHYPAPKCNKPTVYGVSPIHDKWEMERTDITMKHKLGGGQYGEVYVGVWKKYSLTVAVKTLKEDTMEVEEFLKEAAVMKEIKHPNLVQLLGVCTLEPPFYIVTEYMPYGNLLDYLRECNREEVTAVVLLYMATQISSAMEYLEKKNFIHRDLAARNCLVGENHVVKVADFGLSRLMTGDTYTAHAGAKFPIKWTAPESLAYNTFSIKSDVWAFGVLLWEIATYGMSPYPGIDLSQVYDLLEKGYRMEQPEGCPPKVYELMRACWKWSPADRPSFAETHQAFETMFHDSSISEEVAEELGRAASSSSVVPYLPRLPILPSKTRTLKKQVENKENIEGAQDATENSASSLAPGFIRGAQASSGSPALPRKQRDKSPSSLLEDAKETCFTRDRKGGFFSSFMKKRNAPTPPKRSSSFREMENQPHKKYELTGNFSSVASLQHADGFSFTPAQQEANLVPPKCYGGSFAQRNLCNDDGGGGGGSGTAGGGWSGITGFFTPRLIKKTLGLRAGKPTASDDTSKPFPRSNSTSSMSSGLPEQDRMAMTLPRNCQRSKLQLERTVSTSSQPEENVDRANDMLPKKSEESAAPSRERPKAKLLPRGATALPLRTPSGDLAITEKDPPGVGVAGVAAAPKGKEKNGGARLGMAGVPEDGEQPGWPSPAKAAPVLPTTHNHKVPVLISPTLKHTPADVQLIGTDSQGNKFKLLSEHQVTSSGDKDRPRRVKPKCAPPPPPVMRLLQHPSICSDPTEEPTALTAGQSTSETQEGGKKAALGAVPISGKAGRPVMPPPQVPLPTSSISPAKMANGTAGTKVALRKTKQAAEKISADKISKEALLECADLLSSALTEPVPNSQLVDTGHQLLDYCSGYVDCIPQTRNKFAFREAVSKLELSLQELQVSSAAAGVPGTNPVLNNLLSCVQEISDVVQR

CDK1 CCNA2 (human) = CDK1 CCNA2 (human) (UniProt P06493+P20248)
WNK3 (human) = WNK3 (human) (UniProt Q9BYP7)
CDK2 CCNE1 (human) = CDK2 CCNE1 (human) (UniProt P24941+P24864)
PRKCG (human) = PRKCG (human) (UniProt P05129)
CLK4 (human) = CLK4 (human) (UniProt Q9HAZ1)
CSNK1A1 (human) = CSNK1A1 (human) (UniProt P48729)
CDK9 CCNT1 (human) = CDK9 CCNT1 (human) (UniProt P50750+O60563)
HIPK4 (human) = HIPK4 (human) (UniProt Q8NE63)
MERTK (human) = MERTK (human) (UniProt Q12866)
ACVRL1 (human) = ACVRL1 (human) (UniProt P37023)
NLK (human) = NLK (human) (UniProt Q9UBE8)
SRPK3 (human) = SRPK3 (human) (UniProt Q9UPE1)
NTRK3 (human) = NTRK3 (human) (UniProt Q16288)
PIM1 (human) = PIM1 (human) (UniProt P11309)
CSNK1G3 (human) = CSNK1G3 (human) (UniProt Q9Y6M4)
TNK2 (human) = TNK2 (human) (UniProt Q07912)
HIPK3 (human) = HIPK3 (human) (UniProt Q9H422)
STK24 (human) = STK24 (human) (UniProt Q9Y6E0)
FLT3 (human) = FLT3 (human) (UniProt P36888)
AURKB (human) = AURKB (human) (UniProt Q96GD4)
Chain of AURKB (human) (Q96GD4 whole entry, looked up): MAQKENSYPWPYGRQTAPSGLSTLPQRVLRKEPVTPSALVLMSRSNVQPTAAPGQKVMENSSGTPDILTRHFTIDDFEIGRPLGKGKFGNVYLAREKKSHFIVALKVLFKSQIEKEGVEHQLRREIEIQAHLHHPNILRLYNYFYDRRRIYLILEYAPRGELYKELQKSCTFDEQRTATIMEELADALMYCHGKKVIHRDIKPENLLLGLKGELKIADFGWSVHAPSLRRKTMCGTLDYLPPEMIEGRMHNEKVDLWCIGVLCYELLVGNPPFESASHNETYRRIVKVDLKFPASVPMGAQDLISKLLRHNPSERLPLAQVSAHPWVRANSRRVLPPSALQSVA

KIT (human) = KIT (human) (UniProt P10721)
KDR (human) = KDR (human) (UniProt P35968)
AKT1 (human) = AKT1 (human) (UniProt P31749)
FLT1 (human) = FLT1 (human) (UniProt P17948)
MARK2 (human) = MARK2 (human) (UniProt Q7KZI7)
EPHB1 (human) = EPHB1 (human) (UniProt P54762)
Chain of EPHB1 (human) (P54762 whole entry, looked up): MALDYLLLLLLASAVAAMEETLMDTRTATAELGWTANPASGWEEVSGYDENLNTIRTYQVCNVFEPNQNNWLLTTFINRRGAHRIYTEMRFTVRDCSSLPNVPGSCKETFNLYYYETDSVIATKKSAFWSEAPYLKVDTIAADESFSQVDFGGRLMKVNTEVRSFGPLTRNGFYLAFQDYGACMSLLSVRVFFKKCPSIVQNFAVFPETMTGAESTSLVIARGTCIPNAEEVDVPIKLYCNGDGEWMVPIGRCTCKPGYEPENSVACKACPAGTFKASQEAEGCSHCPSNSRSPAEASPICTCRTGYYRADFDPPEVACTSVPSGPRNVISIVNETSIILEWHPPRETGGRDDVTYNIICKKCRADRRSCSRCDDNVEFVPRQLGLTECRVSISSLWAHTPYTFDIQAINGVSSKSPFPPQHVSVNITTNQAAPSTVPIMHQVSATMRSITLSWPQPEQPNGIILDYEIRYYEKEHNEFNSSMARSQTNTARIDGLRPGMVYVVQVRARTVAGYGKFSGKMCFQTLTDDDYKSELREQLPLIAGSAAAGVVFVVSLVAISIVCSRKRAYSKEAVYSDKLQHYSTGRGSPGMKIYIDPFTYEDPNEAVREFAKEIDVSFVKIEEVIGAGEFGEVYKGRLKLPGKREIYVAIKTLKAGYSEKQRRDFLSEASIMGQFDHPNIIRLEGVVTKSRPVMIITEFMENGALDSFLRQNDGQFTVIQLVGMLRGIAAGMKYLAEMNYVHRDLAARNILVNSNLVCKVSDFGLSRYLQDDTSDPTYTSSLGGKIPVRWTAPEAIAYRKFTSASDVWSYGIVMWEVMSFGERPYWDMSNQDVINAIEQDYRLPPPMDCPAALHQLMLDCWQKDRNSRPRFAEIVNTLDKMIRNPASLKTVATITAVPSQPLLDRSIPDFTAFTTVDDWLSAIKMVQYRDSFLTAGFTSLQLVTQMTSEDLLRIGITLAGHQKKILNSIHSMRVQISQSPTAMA

GRK5 (human) = GRK5 (human) (UniProt P34947)
Chain of GRK5 (human) (P34947 whole entry, looked up): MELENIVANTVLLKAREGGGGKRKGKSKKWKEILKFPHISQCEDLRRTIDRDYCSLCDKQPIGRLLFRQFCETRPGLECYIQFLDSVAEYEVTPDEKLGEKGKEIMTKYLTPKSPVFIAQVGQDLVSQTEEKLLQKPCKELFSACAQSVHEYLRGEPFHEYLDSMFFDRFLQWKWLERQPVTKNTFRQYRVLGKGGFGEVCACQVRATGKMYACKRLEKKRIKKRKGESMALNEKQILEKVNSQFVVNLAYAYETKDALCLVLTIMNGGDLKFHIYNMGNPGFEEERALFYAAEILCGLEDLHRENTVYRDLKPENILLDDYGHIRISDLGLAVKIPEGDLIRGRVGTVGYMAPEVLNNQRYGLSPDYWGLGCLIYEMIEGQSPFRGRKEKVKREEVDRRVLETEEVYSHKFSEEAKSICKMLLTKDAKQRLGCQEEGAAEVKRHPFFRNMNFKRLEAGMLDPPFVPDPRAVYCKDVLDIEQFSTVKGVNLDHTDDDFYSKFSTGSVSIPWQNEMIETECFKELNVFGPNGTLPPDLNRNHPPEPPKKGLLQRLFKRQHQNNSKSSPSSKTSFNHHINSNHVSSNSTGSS

CSNK1E (human) = CSNK1E (human) (UniProt P49674)
PRKCB2 (human) = PRKCB2 (human) (UniProt P05771)
MAPK9 (human) = MAPK9 (human) (UniProt P45984)
ROCK2 (human) = ROCK2 (human) (UniProt O75116)
PRKACA (human) = PRKACA (human) (UniProt P17612)
BRSK2 (human) = BRSK2 (human) (UniProt Q8IWQ3)
MYLK (human) = MYLK (human) (UniProt Q15746)
Chain of MYLK (human) (Q15746 whole entry, looked up): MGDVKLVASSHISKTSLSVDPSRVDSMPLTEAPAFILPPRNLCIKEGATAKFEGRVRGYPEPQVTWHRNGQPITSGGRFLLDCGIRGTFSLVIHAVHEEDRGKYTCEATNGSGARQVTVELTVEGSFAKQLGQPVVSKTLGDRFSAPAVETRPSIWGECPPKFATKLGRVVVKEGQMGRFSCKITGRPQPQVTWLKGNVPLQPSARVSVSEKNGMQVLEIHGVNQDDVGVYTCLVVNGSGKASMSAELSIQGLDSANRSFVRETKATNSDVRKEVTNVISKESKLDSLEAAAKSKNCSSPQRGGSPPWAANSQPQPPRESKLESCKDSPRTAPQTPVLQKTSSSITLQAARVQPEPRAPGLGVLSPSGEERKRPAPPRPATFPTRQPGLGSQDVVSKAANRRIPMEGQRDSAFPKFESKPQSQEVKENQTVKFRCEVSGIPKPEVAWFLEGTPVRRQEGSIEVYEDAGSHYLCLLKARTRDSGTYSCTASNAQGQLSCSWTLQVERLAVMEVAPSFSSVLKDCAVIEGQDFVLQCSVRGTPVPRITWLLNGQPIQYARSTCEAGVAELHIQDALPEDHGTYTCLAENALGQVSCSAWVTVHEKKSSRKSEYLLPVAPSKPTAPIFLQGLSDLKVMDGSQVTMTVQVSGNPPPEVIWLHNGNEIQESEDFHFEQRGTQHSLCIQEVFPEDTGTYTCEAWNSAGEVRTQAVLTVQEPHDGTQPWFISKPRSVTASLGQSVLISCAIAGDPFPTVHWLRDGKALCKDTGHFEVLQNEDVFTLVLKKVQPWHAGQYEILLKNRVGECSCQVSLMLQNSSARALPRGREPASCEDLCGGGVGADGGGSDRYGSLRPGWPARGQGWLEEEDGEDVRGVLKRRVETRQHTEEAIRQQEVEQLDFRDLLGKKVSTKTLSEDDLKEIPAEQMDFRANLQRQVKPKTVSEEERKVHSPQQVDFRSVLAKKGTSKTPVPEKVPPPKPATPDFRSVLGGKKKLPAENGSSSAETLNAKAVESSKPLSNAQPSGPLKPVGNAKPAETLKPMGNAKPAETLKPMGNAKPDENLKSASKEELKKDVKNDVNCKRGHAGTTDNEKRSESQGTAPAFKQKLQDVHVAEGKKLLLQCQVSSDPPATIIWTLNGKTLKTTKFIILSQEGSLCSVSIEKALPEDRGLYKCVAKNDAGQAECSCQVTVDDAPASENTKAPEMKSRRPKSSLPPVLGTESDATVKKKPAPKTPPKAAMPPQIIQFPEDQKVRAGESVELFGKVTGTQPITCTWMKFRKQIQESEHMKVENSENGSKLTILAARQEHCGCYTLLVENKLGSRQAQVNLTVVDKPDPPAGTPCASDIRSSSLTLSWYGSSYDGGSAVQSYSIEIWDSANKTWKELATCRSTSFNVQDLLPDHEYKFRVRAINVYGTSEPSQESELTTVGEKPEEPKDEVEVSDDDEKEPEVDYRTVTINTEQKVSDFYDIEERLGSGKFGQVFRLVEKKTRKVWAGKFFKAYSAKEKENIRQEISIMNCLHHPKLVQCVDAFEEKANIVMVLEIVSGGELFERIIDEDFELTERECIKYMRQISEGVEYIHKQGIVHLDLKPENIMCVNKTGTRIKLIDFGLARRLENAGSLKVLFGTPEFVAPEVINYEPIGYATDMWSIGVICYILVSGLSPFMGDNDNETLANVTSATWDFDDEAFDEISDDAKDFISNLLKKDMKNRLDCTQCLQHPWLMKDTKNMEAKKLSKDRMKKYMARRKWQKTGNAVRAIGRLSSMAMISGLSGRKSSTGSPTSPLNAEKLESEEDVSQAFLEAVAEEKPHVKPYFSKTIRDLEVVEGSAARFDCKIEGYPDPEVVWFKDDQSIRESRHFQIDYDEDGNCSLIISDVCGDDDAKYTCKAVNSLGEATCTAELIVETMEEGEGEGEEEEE

CSNK2A2 (human) = CSNK2A2 (human) (UniProt P19784)

For CCCC(=O)Oc1ccc2[nH]c(C(=O)c3cc4ccccc4[nH]3)cc2c1, the residual activity (NUAK1 (human)) was 94%, the residual activity (GRK7 (human)) was 105% and the residual activity (EPHA2 (human)) was 99%. It also gave a residual activity (STK4 (human)) of 96.8%, a residual activity (MAPKAPK5 (human)) of 101% and a residual activity (NEK2 (human)) of 86.8%. It also gave a residual activity (ABL2 (human)) of 96.3%, a residual activity (CDK1 CCNA2 (human)) of 87.3% and a residual activity (WNK3 (human)) of 101%. It also gave a residual activity (CDK2 CCNE1 (human)) of 92.1%, a residual activity (PRKCG (human)) of 99% and a residual activity (CLK4 (human)) of 90.2%. It also gave a residual activity (CSNK1A1 (human)) of 94%, a residual activity (CDK9 CCNT1 (human)) of 105% and a residual activity (HIPK4 (human)) of 86.3%. It also gave a residual activity (MERTK (human)) of 96.7%, a residual activity (ACVRL1 (human)) of 90.9% and a residual activity (NLK (human)) of 106%. The residual activity (SRPK3 (human)) was 93.2%, the residual activity (NTRK3 (human)) was 95.9% and the residual activity (PIM1 (human)) was 100%. The residual activity (CSNK1G3 (human)) was 82.7%, the residual activity (TNK2 (human)) was 77.7% and the residual activity (HIPK3 (human)) was 94.7%. It also gave a residual activity (STK24 (human)) of 95.5%, a residual activity (FLT3 (human)) of 79.9% and a residual activity (AURKB (human)) of 97.1%. The residual activity (KIT (human)) was 82.4%, the residual activity (KDR (human)) was 90.4% and the residual activity (AKT1 (human)) was 102%. It also gave a residual activity (FLT1 (human)) of 89.7%, a residual activity (MARK2 (human)) of 83.1% and a residual activity (EPHB1 (human)) of 92.1%. The residual activity (GRK5 (human)) was 100%, the residual activity (CSNK1E (human)) was 97.4% and the residual activity (PRKCB2 (human)) was 102%. The residual activity (MAPK9 (human)) was 76%, the residual activity (ROCK2 (human)) was 103% and the residual activity (PRKACA (human)) was 96.6%. For the same compound, the residual activity (BRSK2 (human)) was 98.8% and the residual activity (MYLK (human)) was 102%.
Compound O=S(=O)(c1cccc2cnccc12)N1CCCNCC1 has a residual activity (NUAK1 (human)) of 73.2%, a residual activity (GRK7 (human)) of 114% and a residual activity (EPHA2 (human)) of 102%. For the same compound, the residual activity (STK4 (human)) was 94.8%, the residual activity (MAPKAPK5 (human)) was 72.6% and the residual activity (NEK2 (human)) was 92.3%. It also gave a residual activity (ABL2 (human)) of 87.6%, a residual activity (CDK1 CCNA2 (human)) of 98.6% and a residual activity (WNK3 (human)) of 98.1%. It also gave a residual activity (PRKCG (human)) of 110%, a residual activity (CLK4 (human)) of 97.1% and a residual activity (CDK9 CCNT1 (human)) of 80.7%. It also gave a residual activity (HIPK4 (human)) of 103%, a residual activity (MERTK (human)) of 88.3% and a residual activity (ACVRL1 (human)) of 111%. For the same compound, the residual activity (NLK (human)) was 97.3%, the residual activity (SRPK3 (human)) was 96.4% and the residual activity (CSNK2A2 (human)) was 91.9%. The residual activity (NTRK3 (human)) was 85.5%, the residual activity (PIM1 (human)) was 77% and the residual activity (CSNK1G3 (human)) was 85%. For the same compound, the residual activity (TNK2 (human)) was 89.4%, the residual activity (HIPK3 (human)) was 107% and the residual activity (STK24 (human)) was 70.2%. It also gave a residual activity (FLT3 (human)) of 103%, a residual activity (AURKB (human)) of 98.8% and a residual activity (KIT (human)) of 96.7%. It also gave a residual activity (KDR (human)) of 86.9%, a residual activity (AKT1 (human)) of 99.3% and a residual activity (FLT1 (human)) of 90%. For the same compound, the residual activity (MARK2 (human)) was 108%, the residual activity (EPHB1 (human)) was 106% and the residual activity (GRK5 (human)) was 109%. For the same compound, the residual activity (CSNK1E (human)) was 99.3%, the residual activity (PRKCB2 (human)) was 101% and the residual activity (MAPK9 (human)) was 87%. It also gave a residual activity (BRSK2 (human)) of 91.7% and a residual activity (MYLK (human)) of 97.4%.
CNc1cc2c(Nc3cccc(Br)c3)ncnc2cn1 gave a residual activity (NUAK1 (human)) of 97.5%, a residual activity (GRK7 (human)) of 83.8% and a residual activity (EPHA2 (human)) of 95.3%. For the same compound, the residual activity (STK4 (human)) was 95.4%, the residual activity (MAPKAPK5 (human)) was 99.3% and the residual activity (NEK2 (human)) was 88.3%. For the same compound, the residual activity (ABL2 (human)) was 84.8%, the residual activity (CDK1 CCNA2 (human)) was 86.5% and the residual activity (WNK3 (human)) was 97.4%. It also gave a residual activity (CDK2 CCNE1 (human)) of 88.6%, a residual activity (PRKCG (human)) of 105% and a residual activity (CLK4 (human)) of 60.9%. For the same compound, the residual activity (CSNK1A1 (human)) was 125%, the residual activity (CDK9 CCNT1 (human)) was 106% and the residual activity (HIPK4 (human)) was 82.8%. The residual activity (MERTK (human)) was 87.5%, the residual activity (ACVRL1 (human)) was 90.6% and the residual activity (NLK (human)) was 84.3%. The residual activity (SRPK3 (human)) was 97.1%, the residual activity (NTRK3 (human)) was 72.7% and the residual activity (PIM1 (human)) was 66.2%. The residual activity (CSNK1G3 (human)) was 86.3%, the residual activity (TNK2 (human)) was 30.3% and the residual activity (HIPK3 (human)) was 94.1%. The residual activity (STK24 (human)) was 101%, the residual activity (FLT3 (human)) was 71.2% and the residual activity (AURKB (human)) was 76.3%. For the same compound, the residual activity (KIT (human)) was 86.4%, the residual activity (KDR (human)) was 77.6% and the residual activity (AKT1 (human)) was 98.8%. It also gave a residual activity (FLT1 (human)) of 83.5%, a residual activity (MARK2 (human)) of 90.9% and a residual activity (EPHB1 (human)) of 90.2%. For the same compound, the residual activity (GRK5 (human)) was 120%, the residual activity (CSNK1E (human)) was 84.8% and the residual activity (PRKCB2 (human)) was 102%. It also gave a residual activity (MAPK9 (human)) of 96.5%, a residual activity (ROCK2 (human)) of 99.5% and a residual activity (PRKACA (human)) of 104%. For the same compound, the residual activity (BRSK2 (human)) was 90.9% and the residual activity (MYLK (human)) was 79.5%.
